# Measurements: ChEMBL document CHEMBL3507680, “University of Dundee, Gates Library screen for HepG2 cell viability”
# Test: Human HepG2 cell viability assay in 384 well format
# Type: toxicity, cell-based
# Design: dose 125 nL, time 70.5 hour; concentration not given beside the values
# Conditions: HepG2 cells, read-out: Inhibition
row,Structure (SMILES),cytotoxicity at 70.5 h
1,O=C1NCCO[C@H]2CN(C(=O)Cc3csc4ccccc34)CC[C@@H]12,-8.16%
2,Cc1nn(C)c(C)c1C1CCCN1C(=O)CCCn1cccn1 (stereo not drawn),-14.1%
3,O=C(CCNc1ncccn1)Nc1ccc(Cn2cncn2)cc1,-7.19%
4,CCc1nc(C2CCCN2CC(=O)Nc2c(C)nn(C)c2C)no1 (stereo not drawn),-3.18%
5,Cc1nc(C)n(C2CCCN(C(=O)c3ccc4[nH]nnc4c3)C2)n1 (stereo not drawn),0.449%
6,CCNC(=O)C(C)Oc1ccc(N(C)S(C)(=O)=O)cc1 (stereo not drawn),-5.5%
7,Cc1ccoc1C(=O)N(CCN(C)C)Cc1ccccn1,-2.01%
8,Cc1ccc(O)c(C(=O)NCCCS(=O)(=O)Cc2ccccc2)c1,-11.4%
9,O=S(=O)(NCc1ccnc(-n2ccnc2)c1)c1cncc(Cl)c1,-0.226%
10,Cc1cc(CNC(=O)NC(C)c2ccc(N3CCOCC3)cc2)no1 (stereo not drawn),-5.55%
11,O=C(NCCCn1ccnc1)NCC(c1ccco1)N1CCCCC1 (stereo not drawn),4.46%
12,CS(=O)(=O)N1C[C@@H](O)[C@H](N2CCN(c3ccccc3)CC2)C1,22.6%
13,CC(C)n1c2ccccc2c2c1cc(C(=O)O)n2C(=O)N(C)C,-2.89%
14,CC(C)CN1CCC(C(=O)NCCNC(=O)c2ccco2)CC1,-5.07%
15,CC1CCCN(C(=O)c2ncncc2Cl)C1 (stereo not drawn),12.9%
16,CC(C)(C)CCN1CCCC(Cn2cc(CCO)nn2)C1 (stereo not drawn),-9.34%
17,Cc1cc(C)n(CC2CCCN2C(=O)c2ccc3c(c2)OCCO3)n1 (stereo not drawn),-12.8%
18,COc1ccc(C[C@H]2CN(C3CCOCC3)CC[C@@H]2OCC2CC2)cc1,-3.98%
19,c1cc(CNCC2OCCc3cn(CC4CC4)nc32)cs1 (stereo not drawn),-4.34%
20,Cc1nccnc1N1CCC(Cc2ccccc2Cl)(C(=O)O)CC1,-11.4%
21,Cc1cccc(N2CCOCC3(C2)CN(c2cncnc2)C(=O)CO3)n1 (stereo not drawn),-6.08%
22,O=C(Nc1cnn(Cc2ccc(F)cc2Cl)c1)C1CC1,-3.99%
23,COc1ccccc1C1=NOC(CC2(C(=O)NCCO)CCOCC2)C1 (stereo not drawn),0.737%

row,Structure (SMILES),cytotoxicity at 70.5 h
1,O=C(NCc1csc(Br)c1)c1ccc(=O)[nH]n1,-15.6%
2,c1ccc2oc(CCCN3CCCC3c3noc(C4CC4)n3)nc2c1 (stereo not drawn),17.9%
3,COC(=O)c1ccc(N2CCC(C(O)c3ccccc3)CC2)nn1 (stereo not drawn),-4.29%
4,O=C(NCCNC(=O)C1CCN(CC(F)(F)F)CC1)c1ccoc1,-4.81%
5,COCCC1(CO)CCCN(C(=O)c2cc(Cl)ccc2F)C1 (stereo not drawn),-11%
6,Cc1ncsc1CNC(=O)NCC1(c2ccc3c(c2)OCO3)CC1,19%
7,Cc1nnc(N2CC[C@H](OCC3CC3)[C@@H](Cc3ccccc3)C2)s1,11.8%
8,CCN(C)CC(=O)N1CCCC(c2nnc(CN3CCOCC3)n2C)C1 (stereo not drawn),-4.67%
9,Cc1ccccc1CC(=O)N1C[C@H]2CC[C@@H]1CN(Cc1cccnc1)C2,-4.12%
10,COCCN1C(=O)CCC12CCN(C(=O)NC(C)C)CC2,-25.3%
11,Cc1nn(CC(C)C)c(N(C)C)c1CNCCCNS(C)(=O)=O,31.6%
12,CN(C(=O)CCC(F)(F)F)c1cccc2ncccc12,42.6%
13,O=C1CCC2(CCCN(C(=O)c3cscn3)C2)CN1CCc1c[nH]cn1 (stereo not drawn),-9.29%
14,COc1ccccc1C(O)CNC(=O)NCc1csc(C)n1 (stereo not drawn),1.19%
15,CCn1c(C(=O)N2CCN(C(=O)NC(C)C)CC2)cc2ccccc21,-9.47%
16,Cc1ccc(C(NC(=O)CN2CCc3c(ncn3C)C2)C2CC2)cc1 (stereo not drawn),-16.3%
17,Cc1ccc(N2CCC3(CCN(C(=O)C4CCOC4)CC3)CC2)nn1 (stereo not drawn),-3.84%
18,COCCC(=O)N1CCC2(CN(Cc3cccc(Cl)c3)C2)C1,33.3%
19,Cc1occc1C(=O)NCC(=O)N(C)CCCOc1ccc(F)cc1,-6.91%
20,Cc1nc(CN2C[C@@H]3CN(C(=O)C4(C#N)CC4)C[C@@H]3C2=O)cs1,-2.26%
21,CC(C)Cn1ncc2cc(C(=O)N(C)CCc3ccccc3)cnc21,-8.96%
22,O=c1[nH]nc2c(S(=O)(=O)N3CCN(c4ccc(F)cc4)CC3)cccn12,20.6%
23,COc1cnc(N2C[C@@H](CN3CCOCC3)C[C@H](CO)C2)nc1,-2.56%

row,Structure (SMILES),cytotoxicity at 70.5 h
1,CN(C)CCNc1cc(-c2ccc[nH]c2=O)c2cc[nH]c2n1,-5.94%
2,O=C1N[C@H]2OCCC[C@H]2[C@H](c2ccc(C(=O)O)cc2)N1,12.6%
3,C[C@H]1C[C@H]2CN(C(=O)c3cccc4c3OCCO4)CC[C@H]2O1,32.2%
4,O=S1(=O)C[C@@H]2[C@H](C1)N(Cc1cc(F)cc(Cl)c1)CCN2CCO,-0.108%
5,COCCN1CCc2onc(C(c3ccccc3)c3ccccc3)c2C1,-8.42%
6,COC(=O)C1CCN(c2cncc(-n3nc(C)cc3C)n2)CC1,2.18%
7,CCc1ncc2c(n1)CN(CC(=O)Nc1cc(C)on1)CC2,12%
8,CCc1nccn1C1CCCN(C(=O)Cc2n[nH]c3ccccc23)C1 (stereo not drawn),-1.24%
9,CCC(C)S(=O)(=O)N(Cc1ccco1)Cc1ccccc1O (stereo not drawn),-10.4%
10,CC(C)NC(=O)N1CCN(S(=O)(=O)C2CC2)CC2(CC(=O)N(C)C2)C1 (stereo not drawn),0.827%
11,COC(=O)CNC(=O)CSCc1nc(O)c2c(C)c(C)sc2n1,-18.2%
12,O=C(c1coc(COc2cccc(F)c2)n1)N1CC[C@H](O)[C@@H](O)C1,-9.89%
13,Cc1ccc(C(CNCc2ccc(C#N)cc2)N2CCOCC2)s1 (stereo not drawn),-3.96%
14,CC1c2ncc(Cn3cncn3)n2CCN1C1CCOCC1 (stereo not drawn),2.73%
15,Cc1ncc2c(c1CNC(=O)C1(C)CC1)CCNC2,-7.68%
16,CC(=O)N[C@@H]1CN(Cc2cccs2)C[C@H]1c1ccc(C)o1,1.3%
17,O=C(c1cncs1)N1CCOCC(Cc2ccncn2)C1 (stereo not drawn),-7.66%
18,Cc1cnn(C2CN(Cc3nc(-c4ccccn4)no3)C2)c1,12.3%
19,Cc1ccc(NC(=O)N2CCCN(C(N)=O)CC2)s1,7.8%
20,CC(C)NC(=O)N1CCN(S(C)(=O)=O)CC2(CNC(=O)C2)C1 (stereo not drawn),-17.9%
21,Cn1cc(-c2csc(N3CCN(C(=O)OC(C)(C)C)CC3)n2)cn1,-2.04%
22,NC(=O)CN1CCCC1c1csc(Nc2cnccn2)n1 (stereo not drawn),-9.23%
23,Cc1cc(C(=O)Nc2cc(C3CC3)n[nH]2)c2c(C)nn(C)c2n1,-12.4%

row,Structure (SMILES),cytotoxicity at 70.5 h
1,Cc1ncc(COc2cccc3c2NC(=O)CO3)s1,14.5%
2,c1ccc(COC[C@H]2CC[C@H]3[C@H](CCN3Cc3ccco3)O2)nc1,-6.26%
3,Cc1ccc(CNC(=O)Cc2c(C)nc3c(c2C)c(=O)[nH]n3C)cc1,4.93%
4,CSc1ccc(OCCN2CCC(n3cncn3)CC2)cc1,-13.7%
5,Cc1nccn1C1CCCN(C(=O)c2ccc(N(C)C)nn2)C1 (stereo not drawn),-4.18%
6,Cc1cccc(CN2C[C@@H]3COC[C@]3(CNC(=O)c3cccn3C)C2)n1,19.6%
7,CN(C)C(=O)CO[C@H]1CN(Cc2ccc(F)cc2)[C@@H]2CCCO[C@H]12,-9.38%
8,Cc1ncc(CC(=O)N2CCC(N3C[C@@H](C)O[C@@H](C)C3)CC2)c(=O)[nH]1,9.33%
9,c1c(CN2CCCCC2)nc2n1CCNC2,8.55%
10,CN(C)c1ncc(CNC2CC(=O)N(CCc3cccc(Cl)c3)C2)s1 (stereo not drawn),-4.44%
11,CC(=O)NCCC1CCCCN1S(=O)(=O)c1cccc(C#N)c1 (stereo not drawn),-2.49%
12,Cc1nc(C)c(C(=O)NCCNC(=O)Cc2cccc(F)c2)s1,-9.52%
13,NC(=O)CN1CCC(c2csc(Nc3cnccn3)n2)CC1,-4.74%
14,CN(Cc1noc(C2CC2)n1)C1CCN(CCc2cnn(C)c2)C1 (stereo not drawn),14.4%
15,CN(Cc1ccc(Cl)s1)C(=O)c1ccccc1OCC(N)=O,-14.1%
16,Cc1ncc2c(n1)CN(Cc1nc(-c3ccsc3)oc1C)CC2,-15.2%
17,Cc1csc2c(C3CCCN(C(=O)Cn4cncn4)C3)nc(C)n12 (stereo not drawn),-1.76%
18,O=C(N1CCOCC1)n1cnc2ccccc21,-11.5%
19,COCCN1CCO[C@@H]2CN(Cc3ccccn3)C[C@@H]2C1,2.26%
20,CNS(=O)(=O)c1ccc(CNC(=O)N(C)CC(C)C)cc1,-94.7%
21,CCCN(C(=O)COCC)c1cccc(C)c1,-4.58%
22,Cn1ccnc1C(O)(CCNCc1ccco1)C(F)(F)F (stereo not drawn),5.83%
23,O=C(NCC1(O)CCSCC1)c1ccoc1,-1.38%

row,Structure (SMILES),cytotoxicity at 70.5 h
1,Cc1nc(C2CCCN2CC(=O)N2CCCc3ccccc32)no1 (stereo not drawn),-6.37%
2,CCc1nc(CNC2CCCCNC2=O)cs1 (stereo not drawn),-6.64%
3,CC(C)c1ncc2c(n1)CN(CC(=O)Nc1ccncc1)CC2,-7.98%
4,O=C(NCCc1cnccn1)c1ccc(S(=O)(=O)NC2CCC2)cc1,18.7%
5,Cc1noc(C)c1S(=O)(=O)N1CCc2nc(C3CCNCC3)ncc2C1,-6.62%
6,CCN(Cc1cccnc1)CC1CCCO1 (stereo not drawn),-0.83%
7,CCNc1cc2c(nn1)CCN(C(=O)CCc1c(C)noc1C)C2,18.9%
8,CN(C)C(=O)C(C)(C)c1ccc2c(c1)OCCO2,-5.25%
9,O=C(c1cn2cc(Cl)ccc2n1)N1CCC(CCn2cccn2)CC1,19.9%
10,COc1ccc(CN2CCc3c(CNC(=O)CC#N)nn(C)c3C2)cc1,-1.4%
11,CCOC(=O)c1cnn(-c2cc(Oc3cc(C)ccc3C)ncn2)c1N,-0.831%
12,CCCNC(=O)NC(=O)CNC(C)(C)c1ccc2c(c1)OCO2,-0.993%
13,CCc1nc(C2CCCN2c2ncc(Br)cn2)no1 (stereo not drawn),-6.32%
14,Cc1ccc(CC(=O)NCC(Cc2ccc(F)cc2)C(N)=O)cn1 (stereo not drawn),-0.982%
15,CCc1nnc2n1CCN(Cc1csc(-c3ccccc3F)n1)C2,-7.77%
16,CC(C(=O)NCc1ccc(N2CCCC2)nc1)n1cncn1 (stereo not drawn),-0.612%
17,COCc1ncc(CN2CCC(Oc3ccccc3C)CC2)cn1,-16.4%
18,CCc1nnc2n1CCN(C(=O)Cc1csc(-c3ccco3)n1)C2,-15.6%
19,CN1CCN(c2ccccc2NC(=O)NCCc2ccc(O)cc2)CC1,-6.51%
20,CC(C)CC(=O)N1CCC2(CC1)OCCO2,-6.38%
21,COc1cccc(S(=O)(=O)NC2CNC(=O)C2)c1 (stereo not drawn),1.68%
